Laboratory results reported in article PMC3961306, “Comparison of the Cancer Gene Targeting and Biochemical Selectivities of All Targeted Kinase Inhibitors Approved for Clinical Use” (PLoS ONE, 2014).
pIC50: −log10 of the molar value. Like-named read-outs stand apart in the source and are kept apart here.

Experiments:
[1] = target: T1, panel of more than 300 wild-type and mutant kinases (313 kinase panel) (Homo sapiens, UniProt P30530); assay: Kinase profiling in a biochemical assay panel (mobility shift assays and ELISA), %-inhibition at 1 μM; selectivity entropy; settings: kinase AXL; 1 μM compound
T1 sequence (P30530 26-894): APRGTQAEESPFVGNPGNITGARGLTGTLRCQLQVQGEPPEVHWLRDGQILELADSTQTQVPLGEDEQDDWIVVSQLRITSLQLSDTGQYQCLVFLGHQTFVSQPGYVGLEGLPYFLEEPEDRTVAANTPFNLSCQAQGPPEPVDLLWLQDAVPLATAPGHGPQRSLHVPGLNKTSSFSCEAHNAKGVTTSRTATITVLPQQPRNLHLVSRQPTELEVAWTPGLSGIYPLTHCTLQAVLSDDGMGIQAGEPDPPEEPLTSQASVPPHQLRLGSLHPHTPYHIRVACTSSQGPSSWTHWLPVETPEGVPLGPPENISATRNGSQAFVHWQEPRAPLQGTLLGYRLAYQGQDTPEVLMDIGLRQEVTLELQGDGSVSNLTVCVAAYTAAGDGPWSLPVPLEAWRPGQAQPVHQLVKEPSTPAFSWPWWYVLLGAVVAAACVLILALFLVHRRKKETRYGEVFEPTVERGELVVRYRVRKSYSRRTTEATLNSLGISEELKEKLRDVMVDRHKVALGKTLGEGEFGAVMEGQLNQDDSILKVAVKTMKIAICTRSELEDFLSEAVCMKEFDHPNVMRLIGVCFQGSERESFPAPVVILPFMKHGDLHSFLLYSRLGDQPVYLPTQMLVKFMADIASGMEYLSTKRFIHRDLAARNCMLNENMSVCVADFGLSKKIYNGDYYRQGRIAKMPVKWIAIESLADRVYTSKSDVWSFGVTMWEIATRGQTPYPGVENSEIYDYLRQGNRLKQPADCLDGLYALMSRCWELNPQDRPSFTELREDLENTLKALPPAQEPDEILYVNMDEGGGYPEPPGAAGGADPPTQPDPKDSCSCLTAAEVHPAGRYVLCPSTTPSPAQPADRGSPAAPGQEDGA

[2] = target: panel of more than 300 wild-type and mutant kinases (313 kinase panel) (Homo sapiens, UniProt P11362, V561M); assay: as above; settings: kinase FGFR1(V561M); compound at 1 μM
[3] = target: panel of more than 300 wild-type and mutant kinases (313 kinase panel) (Homo sapiens, UniProt P22694); assay: as above; settings: kinase PKACβ; 1 μM
[4] = target: panel of more than 300 wild-type and mutant kinases (313 kinase panel) (Homo sapiens, UniProt Q9NQU5); assay: as above; settings: kinase PAK6; 1 μM
[5] = target: T2, panel of more than 300 wild-type and mutant kinases (313 kinase panel) (Homo sapiens, UniProt P51955); assay: as above; settings: kinase NEK2; 1 μM
T2 sequence (P51955 1-445): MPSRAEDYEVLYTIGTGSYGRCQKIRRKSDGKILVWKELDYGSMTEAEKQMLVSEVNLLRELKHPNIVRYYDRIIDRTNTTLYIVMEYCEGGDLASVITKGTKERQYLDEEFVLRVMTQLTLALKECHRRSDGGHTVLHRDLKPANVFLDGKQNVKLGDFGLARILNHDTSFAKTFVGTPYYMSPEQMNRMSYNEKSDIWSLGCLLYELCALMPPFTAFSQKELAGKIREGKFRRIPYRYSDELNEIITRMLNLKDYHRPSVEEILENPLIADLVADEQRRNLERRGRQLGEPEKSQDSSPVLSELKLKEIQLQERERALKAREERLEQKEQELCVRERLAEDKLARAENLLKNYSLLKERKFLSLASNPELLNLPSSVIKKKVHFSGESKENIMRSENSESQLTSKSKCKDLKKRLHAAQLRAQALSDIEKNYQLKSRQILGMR

[6] = system: forty-four human cancer cell lines; assay: Cell proliferation assay (ATPlite, 72 hours) in the 44 cell line Oncolines panel; assay type: cell-based; settings: Homo sapiens

With `CO[C@H]1C[C@@H]2CC[C@@H](C)[C@@](O)(O2)C(=O)C(=O)N2CCCC[C@H]2C(=O)O[C@H]([C@H](C)C[C@@H]2CC[C@@H](OCCO)[C@H](OC)C2)CC(=O)[C@H](C)/C=C(\C)[C@@H](O)[C@@H](OC)C(=O)[C@H](C)C[C@H](C)/C=C/C=C/C=C/1C` [everolimus] as the compound, how does the “%-inhibition, AXL” value [1] read?
Its value is -1.68%.

What about the “%-inhibition of FGFR1(V561M)” value [2] of the same compound?
The value was -12%.

What about the “%-inhibition of PKACβ” value [3] of the same compound?
Its value is -6%.

What about the “%-inhibition of PAK6” value [4] of the same compound?
The value was -1.22%.

What about the “%-inhibition of NEK2” value [5] of the same compound?
Its value is -7%.

And the pIC50 ([6]; 769-P, cell line 769-P, read-out: cell panel IC50, 769-P)?
The pIC50 was 6.43.

And the pIC50 ([6]; 786-0, cell line 786-0, read-out: cell panel IC50, 786-0)?
The pIC50 was 6.69.

What about the pIC50 ([6]; A 172, read-out: cell panel IC50, A-172, cell line A-172) of the same compound?
Its pIC50 is 7.30.

What about the pIC50 ([6]; A204, cell line A-204, read-out: cell panel IC50, A-204) of the same compound?
Its pIC50 is 4.92.

What about the pIC50 ([6]; A498, read-out: cell panel IC50, A-498, cell line A-498) of the same compound?
The pIC50 was 5.91.

And the pIC50 ([6]; A549, read-out: cell panel IC50, A-549, cell line A-549)?
The pIC50 was 6.14.

What about the pIC50 ([6]; A-375, cell line A375, read-out: cell panel IC50, A375) of the same compound?
Its pIC50 is 4.73.

What about the pIC50 ([6]; A-427, read-out: cell panel IC50, A-427, cell line A-427) of the same compound?
The pIC50 was 7.03.

What about the pIC50 ([6]; ACHN, cell line ACHN, read-out: cell panel IC50, ACHN) of the same compound?
The pIC50 was 4.82.

And the pIC50 ([6]; AN3-CA, cell line AN3 CA, read-out: cell panel IC50, AN3 CA)?
The pIC50 was 6.98.

What about the pIC50 ([6]; AU565, read-out: cell panel IC50, AU-565, cell line AU-565) of the same compound?
The pIC50 was 4.56.

And the pIC50 ([6]; BT-20, cell line BT-20, read-out: cell panel IC50, BT-20)?
The pIC50 was 8.15.

And the pIC50 ([6]; BT-549, read-out: cell panel IC50, BT-549, cell line BT-549)?
Its pIC50 is 7.24.

And the pIC50 ([6]; BXPC-3, cell line BxPC-3, read-out: cell panel IC50, BxPC-3)?
The pIC50 was less than 4.50.

What about the pIC50 ([6]; C-33-A, cell line C-33 A, read-out: cell panel IC50, C-33 A) of the same compound?
The pIC50 was 7.70.

And the pIC50 ([6]; CAL-27, cell line CAL 27, read-out: cell panel IC50, CAL 27)?
Its pIC50 is 5.57.

What about the pIC50 ([6]; CCRF-CEM, cell line CCRF-CEM, read-out: cell panel IC50, CCRF-CEM) of the same compound?
Its pIC50 is 5.85.

And the pIC50 ([6]; DLD-1, cell line DLD-1, read-out: cell panel IC50, DLD-1)?
The pIC50 was 6.31.

And the pIC50 ([6]; FaDu, cell line FaDu, read-out: cell panel IC50, FaDu)?
Its pIC50 is 5.93.

And the pIC50 ([6]; HCT-15, cell line HCT-15, read-out: cell panel IC50, HCT-15)?
The pIC50 was 6.53.

What about the pIC50 ([6]; HCT-116, read-out: cell panel IC50, HCT-116, cell line HCT-116) of the same compound?
The pIC50 was 4.72.

What about the pIC50 ([6]; Hs-578T, cell line Hs 578T, read-out: cell panel IC50, Hs 578T) of the same compound?
Its pIC50 is 7.31.

What about the pIC50 ([6]; Jurkat E6.1, cell line Jurkat E6.1, read-out: cell panel IC50, Jurkat E6.1) of the same compound?
Its pIC50 is 7.20.

What about the pIC50 ([6]; K562, read-out: cell panel IC50, K-562, cell line K-562) of the same compound?
Its pIC50 is less than 4.50.

And the pIC50 ([6]; LS174T, read-out: cell panel IC50, LS 174T, cell line LS 174T)?
The pIC50 was less than 4.50.

What about the pIC50 ([6]; LoVo, cell line LoVo, read-out: cell panel IC50, LoVo) of the same compound?
The pIC50 was less than 4.50.

And the pIC50 ([6]; MG-63, cell line MG-63, read-out: cell panel IC50, MG-63)?
Its pIC50 is 6.34.

And the pIC50 ([6]; MOLT-4, cell line MOLT-4, read-out: cell panel IC50, MOLT-4)?
Its pIC50 is 6.82.

What about the pIC50 ([6]; MeWo, cell line MeWo, read-out: cell panel IC50, MeWo) of the same compound?
The pIC50 was less than 4.50.

And the pIC50 ([6]; NCI-H82, cell line NCI-H82, read-out: cell panel IC50, NCI-H82)?
Its pIC50 is 5.32.

And the pIC50 ([6]; NCI-H460, cell line NCI-H460, read-out: cell panel IC50, NCI-H460)?
The pIC50 was 5.40.

What about the pIC50 ([6]; OVCAR-3, cell line OVCAR-3, read-out: cell panel IC50, OVCAR-3) of the same compound?
Its pIC50 is 6.33.

And the pIC50 ([6]; RPMI-7951, cell line RPMI-7951, read-out: cell panel IC50, RPMI-7951)?
The pIC50 was 8.92.

And the pIC50 ([6]; SHP77, cell line SHP-77, read-out: cell panel IC50, SHP-77)?
Its pIC50 is less than 4.50.

And the pIC50 ([6]; SK-N-AS, cell line SK-N-AS, read-out: cell panel IC50, SK-N-AS)?
Its pIC50 is 6.52.

And the pIC50 ([6]; SW48, cell line SW48, read-out: cell panel IC50, SW48)?
Its pIC50 is 4.73.

And the pIC50 ([6]; SW480, cell line SW480, read-out: cell panel IC50, SW480)?
The pIC50 was 4.83.

What about the pIC50 ([6]; SW-620, cell line SW620, read-out: cell panel IC50, SW620) of the same compound?
Its pIC50 is 4.78.

What about the pIC50 ([6]; U2OS, cell line U-2 OS, read-out: cell panel IC50, U-2 OS) of the same compound?
Its pIC50 is 5.37.

What about the pIC50 ([6]; cell line J82, read-out: cell panel IC50, J82) of the same compound?
The pIC50 was 6.36.

And the pIC50 ([6]; cell line PA-1, read-out: cell panel IC50, PA-1)?
The pIC50 was 5.48.

And the pIC50 ([6]; cell line SJCRH30, read-out: cell panel IC50, SJCRH30)?
The pIC50 was 4.55.

What about the pIC50 ([6]; cell line SR, read-out: cell panel IC50, SR) of the same compound?
The pIC50 was 6.96.

What about the pIC50 ([6]; U-87 MG cell line, ATPlite, 72 hours, read-out: IC50 in cell proliferation assay (table S5 cellpanel data)) of the same compound?
The pIC50 was 6.19.
